Measurements from patent US20150141340A1, “METHOD OF TREATING AND PREVENTING OCULAR ANGIOGENESIS” (Yale University, priority 2012, published 2015).

Key:
[1] = tested on: choroidal neovascularization (CNV); assay: Laser-induced choroidal neovascularization (CNV) model, isolectin b4 labeling; type: in vivo, mice
Description: Experiments were designed to examine whether treatment with cavtratin is useful in disease models of excessive ocular angiogenesis. To induce choroidal neovascularization (CNV), a model for retinal angiogenesis in mice, three 532 nm diode laser spots were applied to each fundus of the eye using a coverslip as a contact lens. The lesions were placed between the retinal vessels 2-3 disc diameters from the optic nerve. Formation of a bubble indicates rupture of the Bruch's membrane, a critical factor in driving CNV. Cavtratin was dissolved into acetic acid and diluted into saline. […] After treatment and injury, CNV was visualized by immunofluorescent labeling with isolectin b4, a marker for angiogenic blood vessels. CNV area was quantified as isolectin positive vessels per area measured.
Since mechanistically cavtratin reduces vascular permeability, vascular leakage was examined after CNV damage.
Further, it was examined whether the effects of cavtratin treatment synergizes with anti-VEGF. Mice were injected with either cavtratin (0.05 nmol) one day prior to laser damage, anti-VEGF (5 μg) 2 days after damage, or were treated with both cavtratin and anti-VEGF.

[2] = tested on: ischemia triggered neovascularization; assay: Retinopathy of prematurity model (ROP); type: in vivo, mouse; details: administration 2 days after switching from hyperoxia to room air; vs AP injected eyes
Experimental: Next, cavtratin was tested in an additional model of ocular angiogenesis, retinopathy of prematurity model (ROP). Exposure to hyperoxia during early retinal development leads to the arrest or retardation of normal retinal vascular development. When the animals are returned to the normoxic environment, they are under a relative hypoxic situation where the retina now lacks its normal vasculature that is required to adequately support the neural tissue in normoxic conditions. This ischemic situation results in unregulated, abnormal neovascularization. The neovascular response is very consistent, reproducible and quantifiable, and it has become integral model for studying disease mechanisms and potential treatments for ischemic retinopathy. The mouse ROP model has become the most common model for studying pathologic angiogenesis and has been extended to the general study of ischemic retinopathies and related anti-angiogenic treatments. […] Cavtratin induced attenuation of ischemia triggered neovascularization is shown in FIG. 8, where the left panels are representative of two AP injected eyes and right panels are from cavtratin injections.

**Q.** What does the source list for “cavtratin: fusion peptide comprising an antennapedia homeodomain internalization sequence fused to a caveolin-1 scaffolding domain; SEQ ID NO: 13 (RQIKIWFQNRRMKWKKDGIWKASFTTFTVTKYWFYR; Antennapedia-caveolin-1 scaffolding domain fusion peptide)”?
**A.** CNV area (isolectin positive vessels per area measured) ([1]; 0.5 nmol intraocular (1 microliter) prior to laser damage and again 2 days after, sacrificed after 4 additional days, vs AP control, N=17-18 eyes, P<0.05): reduced CNV; CNV, dose dependence ([1]; anti-VEGF administration as comparator (FIG. 3, FIG. 4), reduced to a level comparable to anti-VEGF): dose-dependently reduces CNV; ischemia triggered neovascularization [2]: attenuation of extensive, ischemia triggered neovascualization
